The values below come from publication PMC11797554, “Chemical genetics reveals cross-regulation of plant developmental signaling by the immune peptide-receptor pathway” (Science Advances, 2024).

Assay [1] deals with T1, MPK6 (Arabidopsis thaliana, UniProt Q39026).
T1 construct: MPK6ΔNt (29 to 305)
Kind of assay: biochemical. Also noted: isothermal titration calorimetry, 25 °C, PBS pH 7.4, 2% DMSO.

Assay [2] addresses T1, MPK6. Briefly: biochemical. Details: biolayer interferometry (Octet Red96), GST-tagged protein on probe, 25 °C, 1:1 model. As to conditions: read-out: koff (s^-1).
The target of assay [3] is T1, MPK6. Briefly: biochemical. As to conditions: read-out: kon (M^-1s^-1). Details: biolayer interferometry (Octet Red96), GST-tagged protein on probe, 25 °C, 1:1 model.
The target in assay [4] is T1, MPK6. Briefly: BLI and ITC with recombinant MPK6; also in vitro kinase inhibition. It counts as binding.
The target of assay [5] is CA-MPK6 (constitutively active MPK6) (Arabidopsis thaliana, UniProt Q39026, D218G/E222A). Kind of assay: biochemical. The assay is classed as binding.
Chain of CA-MPK6 (constitutively active MPK6) (Q39026 29-305 D218G/E222A limits assumed): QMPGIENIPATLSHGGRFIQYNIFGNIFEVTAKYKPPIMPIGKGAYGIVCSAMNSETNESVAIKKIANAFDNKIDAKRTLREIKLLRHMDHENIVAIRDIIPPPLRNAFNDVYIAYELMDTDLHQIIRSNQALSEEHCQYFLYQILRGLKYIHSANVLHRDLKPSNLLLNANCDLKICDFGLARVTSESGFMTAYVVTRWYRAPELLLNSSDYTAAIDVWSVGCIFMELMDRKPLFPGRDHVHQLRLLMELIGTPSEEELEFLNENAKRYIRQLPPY

T1 sequence (Q39026 29-305): as the sequence (Q39026 29-305 D218G/E222A limits assumed) above, with G190D, A194E counted along it

By Kd is commonly meant the free concentration of one partner at which half of the binding sites on the other are occupied at equilibrium, for simple one-to-one binding. One may read the koff as a measure of how fast the partners let go of each other. As usually defined, the kon is the rate constant with which the complex forms. `Nc1ncnc2c1ncn2[C@@H]1O[C@H](COP(=O)(O)OP(=O)(O)OP(=O)(O)O)[C@@H](O)[C@H]1O` [ATP] showed a Kd in assay [1] of 1.2 ± 0.3 µM. Moreover, the koff in assay [2] is 0.0125 s⁻¹. In addition, the kon in assay [3] was 8920 M⁻¹ s⁻¹.

Turning to `O=P(O)(O)C(O)c1ccc2ccccc2c1` (stereo not shown) [compound 2, hydroxy-2-naphthalenymethylphosphonic acid], the Kd in assay [4] was determined as 4.9 ± 0.6 µM; in assay [5], 58 ± 13 µM. In addition, the koff in assay [2] stood at 0.0175 s⁻¹. The on-rate (kon) in assay [3] stood at 3020 M⁻¹ s⁻¹.
